Reference: patent publication US8436011B2, “Pyridinopyridinone derivatives, preparation thereof and therapeutic use thereof” (Sanofi, priority 2008, dated 2013)
Like-named read-outs stand apart in the source and are kept apart here.

Assays:
[1] = molecular target: T1, fusion protein Tel/PDGF-Rβ (BaF3 Tel/PDGF cells) (Homo sapiens, UniProt P09619); assay: Inhibition of PDGF-Rβ tyrosine kinase activity: proliferation of BaF3 Tel/PDGF cells (CellTiter-Glo, 72 h); format: cell-based, murine; conditions: 72 hours incubation, read-out: IC50 (concentration that inhibits 50% of the proliferation of the BaF3 Tel/PDGF cells)
T1 construct: the transmembrane and intracellular part of the PDGF-Rβ receptor; N-terminal part of the Tel transcription factor (ETV6); expressed in transfected cells; host or cells: murine haematopoietic cell line BaF/3; the other entry of the earlier key: ETV6 (P41212, Transcription factor ETV6)
T1 sequence (P09619 with tags, fused parts or gaps): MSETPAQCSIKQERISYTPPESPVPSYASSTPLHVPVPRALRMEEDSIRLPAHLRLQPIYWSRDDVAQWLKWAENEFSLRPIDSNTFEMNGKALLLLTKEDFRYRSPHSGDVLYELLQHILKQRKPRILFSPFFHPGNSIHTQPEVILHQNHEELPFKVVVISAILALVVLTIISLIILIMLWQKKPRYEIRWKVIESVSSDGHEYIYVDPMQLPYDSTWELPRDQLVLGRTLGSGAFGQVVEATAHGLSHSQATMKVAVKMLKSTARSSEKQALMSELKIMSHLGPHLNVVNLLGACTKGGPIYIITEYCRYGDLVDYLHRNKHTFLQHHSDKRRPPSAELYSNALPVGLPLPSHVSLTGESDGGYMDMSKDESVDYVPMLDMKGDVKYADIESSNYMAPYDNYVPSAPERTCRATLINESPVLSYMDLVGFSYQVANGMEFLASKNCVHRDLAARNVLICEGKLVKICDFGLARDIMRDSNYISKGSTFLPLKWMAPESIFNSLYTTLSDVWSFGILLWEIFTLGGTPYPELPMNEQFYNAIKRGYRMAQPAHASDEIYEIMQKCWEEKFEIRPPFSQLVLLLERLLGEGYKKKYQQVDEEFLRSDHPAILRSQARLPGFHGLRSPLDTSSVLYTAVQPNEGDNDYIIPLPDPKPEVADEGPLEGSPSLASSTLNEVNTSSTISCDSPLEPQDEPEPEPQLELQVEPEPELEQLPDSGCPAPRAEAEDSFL
Method: Measurement of Inhibition of the Tyrosine Kinase Activity of the PDGF Beta (PDGF-Rβ) (Baf-3 tel/PDGFIRβ) Receptor:
This test consists in evaluating the effects of the compounds on the tyrosine kinase activity of the PDGF beta receptor.
The inhibitory effect of the compounds according to the invention towards the tyrosine kinase activity of the PDGF-R receptor was evaluated on the murine haematopoietic cell line BaF/3 transfected with a plasmid coding for the fusion protein Tel/PDGF-Rβ. This fusion protein is found in chronic myelomonocytic myeloid leukaemias (CMML). It comprises the N-terminal part of the Tel transcription factor and the transmembrane and intracellular part of the PDGF-Rβ receptor. This fusion protein is present in dimerized form (presence of an oligomerization domain in the N-terminal part of Tel) and, as a result, leads to constitutive activity of the kinase domain of PDGF-Rβ. This line BaF3 Tel/PDGF has been described in the literature several times and especially, in detailed manner, in the article by M. Carroll et al., PNAS, 1996, 93, 14845-14850.
The BaF3 Tel/PDGF cells are washed with phosphate buffer and inoculated in 96-well plates, at a density of 5×10^4 cells/ml ([…]), in RPMI 1640 containing 10% FCS, in the presence or absence of the test compounds. After incubation for 72 hours, the viable cells are quantified by measuring the cellular ATP by means of the CellTiter-Glo® kit (Promega, Cat G7571). The cells are treated according to the instructions given by the kit manufacturer, and the luminescence is measured using a Luminoskan (Ascent, Labsystem) with the following parameters: measurement: single; integration time: 1000 ms, lag time: 5 s.
It is thus seen that the compounds according to the invention have inhibitory activity on the tyrosine kinase activity of PDGF-Rβ. This activity is given by the concentration that inhibits 50% of the proliferation of the BaF3 Tel/PDGF cells (IC50).

[2] = molecular target: T2, fusion protein Tel/PDGF-R (PDGF-Rβ kinase domain) in HEK cells (Homo sapiens, UniProt P09619); assay: Ex vivo activity: plasma of orally treated mice tested on PDGF-R autophosphorylation in HEK Tel/PDGF-R cells (ELISA); design: species or system female Balb/c mice; conditions: HEK293, mouse, po, 30 mg/kg po, read-out: % inhibition of autophosphorylation of PDGFR tyrosine kinase in HEK cells
T2 construct: the transmembrane and intracellular part of the PDGF-Rβ receptor; N-terminal part of the Tel transcription factor (ETV6); expressed in transfected cells; host or cells: HEK cells (transient transfection); the other entry of the earlier key: ETV6 (P41212, Transcription factor ETV6)
T2 sequence (P09619 with tags, fused parts or gaps): as above
Method: Ex vivo activity of the compounds of the invention was measured. These compounds are thus administered orally to female Balb/c mice at a dose of 10, 30 or 100 mg/kg in suspension or in solution in a vehicle such as methylcellulose/Tween and the inhibition of the tyrosine kinase activity is measured in vitro in a cell test, using plasma collected at 15 minutes, 1 hour and 4 hours.
1) Protocol for Administration of the Products to the Mice
The products are prepared in a mortar with 0.5% Tween 80 and 0.6% methylcellulose qs final volume. Depending on the case, preparations of different vehicles may be used: water, mixture of labrasol solutol 5% glucose-water. The suspended or dissolved products are administered by gavage (10 ml/kg) to female Balb/c mice 8 to 15 weeks old.
The animals are then collected at the time given by the protocol (15 min, 1 hour, 4 hours, 16 hours).
The animals are anaesthetized by intraperitoneal injection (10 ml/kg) of a ketamine (0.1 g/kg)-xylazine (20 mg/kg) mixture. […] The blood sample is collected from the vein or the artery using a dry syringe and needle. The blood is immediately transferred into heparin lithium tubes (BD microtainer). Centrifugation for 3 minutes at 12 000 rpm allows recovery of the plasma, on which the biochemical test may be performed after storage by freezing at −20° C.
2) Preparation of the HEK Tel/PDGF-R Cells and Measurement of the Phosphorylation of PDGF-R
In order to detect the ex vivo activity of the products using the mouse plasmas, the HEK cells are transiently transfected beforehand with an expression vector coding for the fusion protein Tel/PDGF-R (fusion protein described previously). After 24 hours of transfection, the cells are deprived of serum overnight and then incubated for 30 minutes with the animal plasmas treated with the products of the invention. The cells are then lysed in RIPA buffer, and detection of the phosphorylation of PDGF-Rβ is then performed via the ELISA technique, using a commercial kit (R&D Systems, DYC1767). The results are expressed as a percentage of inhibition of the autophosphorylation.
In this test of measurement of the ex vivo activity, the effect of the compounds of the invention is quantified by the percentage of inhibition of phosphorylation of the kinase domain of the PDGF-Rβ receptor in HEK cells, induced by the inhibitory activity of the product present in the plasma of the treated animals, as described in the following table: […]

| Structure (SMILES) | melting point | IC50 [1] | inhibition at 30 mg/kg ([2]; plasma collected at 15 min) | inhibition at 30 mg/kg ([2]; plasma collected at 1 h) | inhibition at 30 mg/kg ([2]; plasma collected at 4 h) |
| --- | --- | --- | --- | --- | --- |
| CCCNC(=O)c1c(N)n(CC)c2nc(-c3ccc(CC(=O)NCC4CCCN4CC)cc3)ccc2c1=O (stereo not shown) [compound 48, 2-amino-1-ethyl-7-[4-(2-{[(1-ethylpyrrolidin-2-yl)methyl]amino}-2-oxoethyl)phenyl]-4-oxo-N-propyl-1,4-dihydro-1,8-naphthyridine-3-carboxamide] | 264 °C | 0.162 µM | – | – | – |
| CCn1c(N)c(C(=O)NC)c(=O)c2ccc(-c3ccc(CC(=O)NC[C@H]4CCCN4CC(F)F)cn3)nc21 [compound 34, 2-amino-7-{5-[2-({[(2R)-1-(2,2-difluoroethyl)pyrrolidin-2-yl]methyl}amino)-2-oxoethyl]pyrid-2-yl}-1-ethyl-N-methyl-4-oxo-1,4-dihydro-1,8-naphthyridine-3-carboxamide] | – | – | 73% | 64% | 58% |
| CCn1c(N)c(C(=O)NC)c(=O)c2ccc(-c3ccc(CC(=O)NCCCc4ccccc4)cc3)nc21 [compound 41, 2-amino-1-ethyl-N-methyl-4-oxo-7-(4-{2-oxo-2-[(3-phenylpropyl)amino]-ethyl}phenyl)-1,4-dihydro-1,8-naphthyridine-3-carboxamide] | 278 °C | 0.0055 µM | – | – | – |
| CCn1c(N)c(C(=O)NC)c(=O)c2ccc(-c3ccc(CC(=O)NC[C@H]4CCCN4CC(F)F)cc3)nc21 [compound 31, 2-amino-7-{4-[2-({[(2R)-1-(2,2-difluoroethyl)pyrrolidin-2-yl]methyl}amino)-2-oxoethyl]phenyl}-1-ethyl-N-methyl-4-oxo-1,4-dihydro-1,8-naphthyridine-3-carboxamide] | – | – | 85% | 68% | 42% |
| CCn1c(N)c(C(=O)NC)c(=O)c2ccc(-c3ccc(CC(=O)NCCN4CCOCC4)cc3)nc21 [compound 18, 2-amino-1-ethyl-N-methyl-7-(4-{2-[(2-morpholin-4-ylethyl)amino]-2-oxoethyl}phenyl)-4-oxo-1,4-dihydro-1,8-naphthyridine-3-carboxamide] | – | – | 55% | 62% | 17% |
| CCn1c(N)c(C(=O)NC)c(=O)c2ccc(-c3ccc(CC(=O)NC[C@H]4CCCN4CCF)cn3)nc21 [compound 29, 2-amino-1-ethyl-7-{5-[2-({[(2R)-1-(2-fluoroethyl)pyrrolidin-2-yl]methyl}-amino)-2-oxoethyl]pyrid-2-yl}-N-methyl-4-oxo-1,4-dihydro-1,8-naphthyridine-3-carboxamide] | – | 0.035 µM | – | – | – |
| CCN1CCCC1CNC(=O)CCCc1ccc(-c2ccc3c(=O)c(C(=O)NC)c(N)n(CC)c3n2)cc1 (stereo not shown) [compound 47, 2-amino-1-ethyl-7-[4-(4-{[(1-ethylpyrrolidin-2-yl)methyl]amino}-4-oxobutyl)phenyl]-N-methyl-4-oxo-1,4-dihydro-1,8-naphthyridine-3-carboxamide] | 230 °C | 0.048 µM | – | – | – |
| CCN1C[C@H](F)C[C@H]1CNC(=O)Cc1ccc(-c2ccc3c(=O)c(C(=O)NC)c(N)n(CC)c3n2)cc1 [compound 26, 2-amino-1-ethyl-7-{4-[2-({[(2S,4R)-1-ethyl-4-fluoropyrrolidin-2-yl]methyl}-amino)-2-oxoethyl]phenyl}-N-methyl-4-oxo-1,4-dihydro-1,8-naphthyridine-3-carboxamide] | – | – | 58% | 67% | 20% |
